In paper PMC6560211, “ApoAI-derived peptide increases glucose tolerance and prevents formation of atherosclerosis in mice” (Diabetologia, 2019):
No end group written: not given here.

Test system: Lepr db (db/db) mice
Assay: GTT in db/db mice
Assay type: in vivo, mouse
Procedure: Male C57BL/6NTac mice (Taconic, Ejby, Denmark) at 8–9 weeks of age were acclimatised for 1 week on a normal chow diet, then changed to a high-fat diet for 2 weeks (diet-induced obesity; DIO), followed by GTT as indicated. Male Lepr^db (db/db) mice on a BKS background (Taconic) at 5 weeks of age were maintained on a normal chow diet and GTTs were performed at 5.5 and 14 weeks of age as indicated. Blood glucose levels were measured in fresh blood (C57: OneTouch Ultra2, Lifescan, Milpitas, CA, USA; db/db: GlucoSmart Swing, MSP bodmann, Bobingen, Germany) and insulin levels were assayed in serum using ELISA (Mercodia) at the times indicated in ESM Fig. 2. See ESM Methods for more details.
Fig. 4 Acute treatment with RG54 improves glucose tolerance during GTTs in three models of type 2 diabetes. Male C57Bl/6 mice fed a high-fat diet for 2 weeks (a–d) or db/db mice at 5.5 (e–h) or 14 (i–l) weeks old were fasted overnight, then treated with a single i.p. injection of NaCl (negative control, 200 μl; C57, n=12; db/db 5.5 weeks, n=6; db/db 14 weeks, n=6), liraglutide (0.1 mg/kg; C57, n=11; db/db 5.5 weeks, n=6; db/db 14 weeks, n=6), ApoA-I (14 mg/kg; C57, n=12; db/db 5.5 weeks, n=6; db/db 14 weeks, n=6) or RG54 (12 mg/kg; C57, n=12; db/db 5.5 weeks, n=6; db/db 14 weeks, n=5). After a further 3 h, mice received an i.p. glucose load (40 mg/mouse for C57; 50 mg/mouse for db/db) followed by blood and plasma collection at the indicated times, and blood glucose (a,e,i) and plasma insulin (b,f,j) concentrations were determined. Total AUC was calculated (mmol/l × min for glucose, pmol/l × min for insulin) and then normalised to the average value of the relevant NaCl control group to give relative AUC (% control) for glucose (c,g,k) and insulin (d,h,l). Values are means ± SEM. *p≤0.05, **p≤0.01, ***p≤0.001 vs NaCl control […]
We next used type 2 diabetes models with a more advanced phenotype: db/db mice at 5.5 and 14 weeks of age.
At 14 weeks of age, mice were markedly obese with a mean ± SEM body weight of 55.3 ± 0.6 g. […] One mouse was excluded from RG54 treatment group because of very high residual insulin secretion prior to the experiment.
Male C57BL/6NTac mice were purchased from Taconic (Ejby, Denmark) at 8-9 weeks of age, acclimatised for one week on normal chow diet, then changed to a High-Fat Diet (HFD; Research Diets D12492, 60% fat content) for 2 weeks, followed by glucose tolerance testing (GTT) with timings as indicated (ESM Figure 2). Male Leprdb mice (db/db) on BKS background purchased from Taconic (BKS.Cg-m+/+Leprdb/BomTac, Ejby, Denmark) at 5 weeks of age were maintained on normal chow diet and GTTs were performed at 5.5 and 14 weeks of age with timings as indicated (ESM Figure 2). For the GTTs, mice fasted overnight (9 h) were injected with the appropriate treatment, and after an additional 3 h given ip glucose (C57: 40 mg/mouse; db/db: 50 mg/mouse) followed by collection of serum samples at the indicated times. Blood glucose levels were measured in fresh blood (C57: OnetouchUltra2, Lifescan; db/db: GlucoSmart Swing, MSP bodmann) and insulin levels were assayed in serum using ELISA (Mercodia). db/db mice were independently randomized to treatments groups for GTT at each time point as no carry over was expected between experiments due to the acute nature of the treatment effects. Primary outcomes were blood glucose and insulin measurements during the GTT. C57BL/6NTac mice were euthanized immediately after each experiment whereas db/db were euthanized immediately after the GTT at 14 weeks of age. […]
and reproducible clinical symptoms of diabetes than females in these models [5; 6] thus ensuring the reproducibility of clinical symptoms between animals within the study. […]

[1] = db/db 5.5 weeks, 3 h treatment, i.p.

Substance: Ac-AEYHAKATEHLSTLSEKAKPALEDLRQGLLPVLESFKVSFLSALEEYTKKLNTQ [RG54]
- fasting glucose levels [1]: significantly lowered
- fasting insulin secretion [1]: no significant changes
- insulin sensitivity as measured by QUICKI [1]: no concomitant change
- glucose AUC (db/db 14 weeks, RG54 12 mg/kg i.p., n=5, vs NaCl): no significant change
